ChEMBL document CHEMBL6083250, “Core Modifications of GSK3335103 toward Orally Bioavailable αvβ6 Inhibitors with Improved Synthetic Tractability” (J Med Chem, 2024)

Tests used:
[1] = in vitro; settings: PAMPA
[2] = Lipophilicity, logD of compound at pH 7.4 by chromatography; assay type: physicochemical; settings: buffer
[3] = Dissociation constant, pKa of compound; assay type: physicochemical
[4] = Unbound AUC in Wistar Han rat at 2 mg/kg, po at 7 to 24 hrs by LC-MS/MS analysis; assay type: ADME, organism-based; settings: in vivo, time 7-24 hrs
[5] = Kinetic solubility of compound by CAD analysis; assay type: physicochemical; settings: read-out: Kinetic_solubility
[6] = Cmax in Wistar Han rat at 1 mg/kg, po at 7 to 24 hrs by LC-MS/MS analysis; assay type: ADME, organism-based; settings: in vivo, time 7-24 hrs
[7] = MRT in Wistar Han rat at 1 mg/kg, iv at 7 to 24 hrs by LC-MS/MS analysis; assay type: ADME, organism-based; settings: in vivo, time 7-24 hrs
[8] = Volume of distribution at steady state in Wistar Han rat at 1 mg/kg, iv at 7 to 24 hrs by LC-MS/MS analysis; assay type: ADME, organism-based; settings: in vivo, time 7-24 hrs, read-out: Vdss
[9] = Oral availability in Wistar Han rat at 1 mg/kg at 7 to 24 hrs by LC-MS/MS analysis; assay type: ADME, organism-based; settings: in vivo, time 7-24 hrs
[10] = Unbound AUC in Wistar Han rat at 1 mg/kg, po at 7 to 24 hrs by LC-MS/MS analysis; assay type: ADME, organism-based; settings: in vivo, time 7-24 hrs
[11] = AUC in Wistar Han rat at 1 mg/kg, po at 7 to 24 hrs by LC-MS/MS analysis; assay type: ADME, organism-based; settings: in vivo, time 7-24 hrs

Row | SMILES | Papp [1] | chromatographic logD [2] | further results
1 | O=C(O)C[C@H](CN1CC[C@@H](CCc2ccc3c(n2)NCCC3)C1)c1cccc(N2CCOCC2)c1 | 27 nm/s | – | –
2 | COCCOc1cccc([C@@H](CC(=O)O)CN2CC(C(F)(F)CCc3ccc4c(n3)NCCC4)C2)c1 | 32 nm/s | 3 | –
3 | O=C(O)C[C@H](CN1CC(CCc2ccc3c(n2)NCCC3)C1)c1cccc(N2CCOCC2)c1 | < 3 nm/s | – | –
4 | COCCOc1cccc([C@H](CC(=O)O)CN2CC[C@@](F)(CCc3ccc4c(n3)NCCC4)C2)c1 | 146 nm/s | 2.9 | pKa [3]: 4.1; fAUC [4]: 0.28 µg·h/mL; solubility kinetic [5]: ≥ 0.238 mg/mL; Cmax [6]: 0.53 µg/mL; MRT [7]: 3 h; Vd [8]: 3.6 L/kg; bioavailability [9]: 93%
5 | COc1cc([C@H](CC(=O)O)CN2CC(C(F)(F)CCc3ccc4c(n3)NCCC4)C2)ccc1F | 163 nm/s | 3.1 | pKa [3]: 4; solubility kinetic [5]: ≥ 0.159 mg/mL; MRT [7]: 3.1 h; Vd [8]: 4.6 L/kg; fAUC [10]: 0.135 µg·h/mL; AUC [11]: 0.881 µg·h/mL; bioavailability [9]: 94%
6 | Cc1cc(C)n(-c2cccc([C@@H](CC(=O)O)CN3CC(CCCc4ccc5c(n4)NCCC5)C3)c2)n1 | < 3 nm/s | – | –
7 | COCCOc1cccc([C@@H](CC(=O)O)CN2CC(SCCc3ccc4c(n3)NCCC4)C2)c1 | 65 nm/s | 2.4 | –
8 | Cc1cc(C)n(-c2cccc([C@H](CC(=O)O)CN3CC(CCCc4ccc5c(n4)NCCC5)C3)c2)n1 | < 10 nm/s | – | –
9 | COCCOc1cccc([C@H](CC(=O)O)CN2CC(C(F)(F)CCc3ccc4c(n3)NCCC4)C2)c1 | 88 nm/s | 3 | pKa [3]: 3.9; Cmax [6]: 0.0204 µg/mL; MRT [7]: 1.7 h; Vd [8]: 3 L/kg; fAUC [10]: 0.038 µg·h/mL; AUC [11]: 0.095 µg·h/mL; bioavailability [9]: 17%
10 | COCCOc1cccc([C@H](CC(=O)O)CN2CC(SCCc3ccc4c(n3)NCCC4)C2)c1 | 72 nm/s | 2.4 | pKa [3]: 4.3
11 | O=C(O)CC(CN1CC(C(F)(F)CCc2ccc3c(n2)NCCC3)C1)c1cccc(O[C@@H]2CCOC2)c1 (mixture of isomers) | 82 nm/s | 2.8 | –
12 | O=C(O)CC(CN1CC(C(F)(F)CCc2ccc3c(n2)NCCC3)C1)c1cccc(O[C@H]2CCOC2)c1 (mixture of isomers) | 63 nm/s | 2.9 | –
13 | COc1cc(C(CC(=O)O)CN2CC(C(F)(F)CCc3ccc4c(n3)NCCC4)C2)ccc1C#N (racemic) | 55 nm/s | 2.9 | –
14 | COc1cc(C(CC(=O)O)CN2CC(C(F)(F)CCc3ccc4c(n3)NCCC4)C2)ccc1F (racemic) | 230 nm/s | 3.2 | Cmax [6]: 0.313 µg/mL; MRT [7]: 3.8 h; Vd [8]: 2.4 L/kg; fAUC [10]: 0.212 µg·h/mL; AUC [11]: 1.37 µg·h/mL; bioavailability [9]: 79%
15 | O=C(O)CC(CN1CC(C(F)(F)CCc2ccc3c(n2)NCCC3)C1)c1cccc(N2CCOCC2)c1 (racemic) | 55 nm/s | 2.7 | –
16 | O=C(O)CC(CN1CC(C(F)(F)CCc2ccc3c(n2)NCCC3)C1)c1cccc(OC2CCOCC2)c1 (racemic) | 89 nm/s | 3.1 | –

Row | SMILES | Papp [1] | chromatographic logD [2] | further results
17 | O=C(O)CC(CN1CC(C(F)(F)CCc2ccc3c(n2)NCCC3)C1)c1ccccc1 (racemic) | 210 nm/s | 3 | –
18 | O=C(O)CC(CN1CC(C(F)(F)CCc2ccc3c(n2)NCCC3)C1)c1cccc(OC2CC2)c1 (racemic) | 390 nm/s | 3.5 | –
19 | COc1cccc(C(CC(=O)O)CN2CC(C(F)(F)CCc3ccc4c(n3)NCCC4)C2)c1I (racemic) | 150 nm/s | 3 | –
20 | O=C(O)CC(CN1CC(C(F)(F)CCc2ccc3c(n2)NCCC3)C1)c1ccnc(C2CC2)c1 (racemic) | 74 nm/s | 2.5 | –
21 | CCOc1cccc(C(CC(=O)O)CN2CC(C(F)(F)CCc3ccc4c(n3)NCCC4)C2)c1 (racemic) | 210 nm/s | 3.4 | –
22 | COc1cc(C(CC(=O)O)CN2CC(C(F)(F)CCc3ccc4c(n3)NCCC4)C2)ccc1Cl (racemic) | 280 nm/s | 3.6 | –
23 | COCCOc1cccc(C(CC(=O)O)CN2CC(OCc3ccc4c(n3)NCCC4)C2)c1 (racemic) | < 3 nm/s | 2 | pKa [3]: 4
24 | COc1ccc(F)c(C(CC(=O)O)CN2CC(C(F)(F)CCc3ccc4c(n3)NCCC4)C2)c1 (racemic) | 250 nm/s | 3.3 | Cmax [6]: 0.739 µg/mL; MRT [7]: 4.2 h; Vd [8]: 1.6 L/kg; fAUC [10]: 0.163 µg·h/mL; AUC [11]: 2.46 µg·h/mL; bioavailability [9]: 91%
25 | O=C(O)CC(CN1CC(C(F)(F)CCc2ccc3c(n2)NCCC3)C1)c1ccnc(OC2CC2)c1 (racemic) | 104 nm/s | 2.7 | –
26 | COc1cccc(C(CC(=O)O)CN2CC(C(F)(F)CCc3ccc4c(n3)NCCC4)C2)c1 (racemic) | 200 nm/s | 3 | –
27 | Cc1cc(C)n(-c2cccc(C(CC(=O)O)CN3CC(C(F)(F)CCc4ccc5c(n4)NCCC5)C3)c2)n1 (racemic) | 130 nm/s | 3.3 | Cmax [6]: 0.0124 µg/mL; MRT [7]: 0.2 h; Vd [8]: 0.7 L/kg; fAUC [10]: 0.0006 µg·h/mL; AUC [11]: 0.014 µg·h/mL; bioavailability [9]: 3%
28 | O=C(O)CC(CN1CC(C(F)(F)CCc2ccc3c(n2)NCCC3)C1)c1cccc(C2CC2)c1 (racemic) | 430 nm/s | 3.7 | –
29 | O=C(O)CC(CN1CC(C(F)(F)CCc2ccc3c(n2)NCCC3)C1)c1ccc2c(c1)OCC2 (racemic) | 160 nm/s | 3 | –
30 | O=C(O)CC(CN1CC(C(F)(F)CCc2ccc3c(n2)NCCC3)C1)c1cccc2c1OCC2 (racemic) | 190 nm/s | 3.1 | –
31 | COc1ncc(C(CC(=O)O)CN2CC(C(F)(F)CCc3ccc4c(n3)NCCC4)C2)cc1C (racemic) | 102 nm/s | 2.7 | solubility kinetic [5]: ≥ 0.118 mg/mL; Cmax [6]: 0.496 µg/mL; MRT [7]: 2.9 h; Vd [8]: 1.1 L/kg; fAUC [10]: 0.152 µg·h/mL; AUC [11]: 1.51 µg·h/mL; bioavailability [9]: 57%
